In ChEMBL document CHEMBL4507303, “Data for DCP probe TP-004” (2021):

What was measured:
[1] = molecular target: Calcium/calmodulin-dependent protein kinase type 1B (Homo sapiens) (UniProt Q6P2M8); settings: Compound concentration 1000.0 nM
[2] = molecular target: Serine/threonine-protein kinase 35 (Homo sapiens) (UniProt Q8TDR2); settings: Compound concentration 1000.0 nM
[3] = molecular target: 5-hydroxytryptamine receptor 2A (Homo sapiens) (UniProt P28223); settings: Compound concentration 10.0 uM
[4] = molecular target: Tyrosine-protein kinase Fyn (Homo sapiens) (UniProt P06241); settings: Compound concentration 1000.0 nM
[5] = molecular target: Cyclin-dependent kinase 13 (Homo sapiens) (UniProt Q14004); settings: Compound concentration 1000.0 nM
[6] = molecular target: Peripheral plasma membrane protein CASK (Homo sapiens) (UniProt O14936); settings: Compound concentration 1000.0 nM
[7] = molecular target: Atypical kinase COQ8A, mitochondrial (Homo sapiens) (UniProt Q8NI60); settings: Compound concentration 1000.0 nM
Atypical kinase COQ8A, mitochondrial (Homo sapiens), sequence (Q8NI60 163-647 limits assumed): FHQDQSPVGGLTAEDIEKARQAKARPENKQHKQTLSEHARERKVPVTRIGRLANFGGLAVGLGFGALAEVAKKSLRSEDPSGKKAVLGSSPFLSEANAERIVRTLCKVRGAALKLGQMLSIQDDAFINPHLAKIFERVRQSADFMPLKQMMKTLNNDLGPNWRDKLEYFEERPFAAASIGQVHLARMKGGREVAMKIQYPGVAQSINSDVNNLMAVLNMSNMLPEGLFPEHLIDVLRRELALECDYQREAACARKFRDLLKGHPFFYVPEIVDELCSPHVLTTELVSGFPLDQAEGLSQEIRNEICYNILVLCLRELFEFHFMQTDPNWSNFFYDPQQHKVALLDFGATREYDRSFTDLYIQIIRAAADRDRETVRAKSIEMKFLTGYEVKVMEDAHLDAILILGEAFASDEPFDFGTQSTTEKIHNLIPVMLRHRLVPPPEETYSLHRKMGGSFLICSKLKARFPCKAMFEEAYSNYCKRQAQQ

[8] = test system: Receptor-type tyrosine-protein kinase FLT3 (Homo sapiens), P36888 [UNDEFINED MUTATION]; settings: Compound concentration 1000.0 nM
[9] = molecular target: Ephrin type-A receptor 1 (Homo sapiens) (UniProt P21709); settings: Compound concentration 1000.0 nM
Ephrin type-A receptor 1 (Homo sapiens), sequence (P21709 whole entry): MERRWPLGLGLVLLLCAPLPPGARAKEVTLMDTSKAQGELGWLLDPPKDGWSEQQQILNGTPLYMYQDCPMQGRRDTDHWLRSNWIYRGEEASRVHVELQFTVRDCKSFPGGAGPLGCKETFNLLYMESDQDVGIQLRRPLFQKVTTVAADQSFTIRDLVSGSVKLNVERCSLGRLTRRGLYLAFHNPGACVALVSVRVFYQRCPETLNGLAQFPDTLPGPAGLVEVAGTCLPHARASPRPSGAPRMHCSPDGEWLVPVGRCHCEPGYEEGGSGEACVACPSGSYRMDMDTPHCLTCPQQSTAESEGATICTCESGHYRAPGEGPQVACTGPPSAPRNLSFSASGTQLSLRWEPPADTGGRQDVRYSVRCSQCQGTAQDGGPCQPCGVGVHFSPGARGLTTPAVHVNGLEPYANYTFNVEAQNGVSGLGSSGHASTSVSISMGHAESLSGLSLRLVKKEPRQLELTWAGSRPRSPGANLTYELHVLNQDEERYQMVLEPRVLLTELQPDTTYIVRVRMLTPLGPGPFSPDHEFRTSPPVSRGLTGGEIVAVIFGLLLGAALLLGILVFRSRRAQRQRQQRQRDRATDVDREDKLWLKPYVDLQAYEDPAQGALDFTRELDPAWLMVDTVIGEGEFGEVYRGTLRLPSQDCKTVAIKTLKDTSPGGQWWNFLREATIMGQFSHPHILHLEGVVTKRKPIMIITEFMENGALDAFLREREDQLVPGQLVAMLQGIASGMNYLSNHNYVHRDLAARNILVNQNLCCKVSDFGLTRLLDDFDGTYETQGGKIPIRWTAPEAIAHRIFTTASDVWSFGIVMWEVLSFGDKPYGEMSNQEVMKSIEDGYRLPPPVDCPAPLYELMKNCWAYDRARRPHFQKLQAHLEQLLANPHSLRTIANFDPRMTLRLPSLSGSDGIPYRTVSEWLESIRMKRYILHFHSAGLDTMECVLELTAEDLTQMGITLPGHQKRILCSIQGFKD

[10] = molecular target: Bone morphogenetic protein receptor type-1B (Homo sapiens) (UniProt O00238); settings: Compound concentration 1000.0 nM
Bone morphogenetic protein receptor type-1B (Homo sapiens), sequence (O00238 whole entry): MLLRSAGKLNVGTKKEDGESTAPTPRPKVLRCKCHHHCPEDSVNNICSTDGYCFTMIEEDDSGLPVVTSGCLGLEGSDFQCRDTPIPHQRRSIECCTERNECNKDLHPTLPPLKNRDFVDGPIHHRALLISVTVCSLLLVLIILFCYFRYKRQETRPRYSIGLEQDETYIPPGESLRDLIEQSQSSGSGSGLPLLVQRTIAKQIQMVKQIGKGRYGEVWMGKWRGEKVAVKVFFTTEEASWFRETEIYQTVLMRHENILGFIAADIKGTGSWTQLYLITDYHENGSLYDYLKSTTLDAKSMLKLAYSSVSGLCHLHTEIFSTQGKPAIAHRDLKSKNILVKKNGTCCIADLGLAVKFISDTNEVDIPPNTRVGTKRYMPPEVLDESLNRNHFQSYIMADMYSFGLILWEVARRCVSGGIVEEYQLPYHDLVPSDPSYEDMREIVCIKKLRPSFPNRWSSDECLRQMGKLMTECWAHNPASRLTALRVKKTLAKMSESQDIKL

[11] = test system: Receptor-type tyrosine-protein kinase FLT3 (Homo sapiens), P36888 [R834Q]; settings: Compound concentration 1000.0 nM
[12] = test system: Tyrosine-protein kinase ABL1 (Homo sapiens), P00519 [M351T]; settings: Compound concentration 1000.0 nM
[13] = molecular target: Tyrosine-protein kinase JAK3 (Homo sapiens) (UniProt P52333); settings: Compound concentration 1000.0 nM
[14] = molecular target: Phosphatidylinositol 4,5-bisphosphate 3-kinase catalytic subunit delta isoform (Homo sapiens) (UniProt O00329); settings: Compound concentration 1000.0 nM
[15] = molecular target: Serine/threonine-protein kinase SIK1 (Homo sapiens) (UniProt P57059); settings: Compound concentration 1000.0 nM
[16] = molecular target: Calcium/calmodulin-dependent protein kinase type 1G (Homo sapiens) (UniProt Q96NX5); settings: Compound concentration 1000.0 nM
[17] = molecular target: 5-hydroxytryptamine receptor 1A (Homo sapiens) (UniProt P08908); settings: Compound concentration 10.0 uM
[18] = molecular target: Serine/threonine-protein kinase ULK1 (Homo sapiens) (UniProt O75385); settings: Compound concentration 1000.0 nM
[19] = molecular target: Serine/threonine-protein kinase PAK 3 (Homo sapiens) (UniProt O75914); settings: Compound concentration 1000.0 nM
Serine/threonine-protein kinase PAK 3 (Homo sapiens), sequence (O75914 whole entry, looked up): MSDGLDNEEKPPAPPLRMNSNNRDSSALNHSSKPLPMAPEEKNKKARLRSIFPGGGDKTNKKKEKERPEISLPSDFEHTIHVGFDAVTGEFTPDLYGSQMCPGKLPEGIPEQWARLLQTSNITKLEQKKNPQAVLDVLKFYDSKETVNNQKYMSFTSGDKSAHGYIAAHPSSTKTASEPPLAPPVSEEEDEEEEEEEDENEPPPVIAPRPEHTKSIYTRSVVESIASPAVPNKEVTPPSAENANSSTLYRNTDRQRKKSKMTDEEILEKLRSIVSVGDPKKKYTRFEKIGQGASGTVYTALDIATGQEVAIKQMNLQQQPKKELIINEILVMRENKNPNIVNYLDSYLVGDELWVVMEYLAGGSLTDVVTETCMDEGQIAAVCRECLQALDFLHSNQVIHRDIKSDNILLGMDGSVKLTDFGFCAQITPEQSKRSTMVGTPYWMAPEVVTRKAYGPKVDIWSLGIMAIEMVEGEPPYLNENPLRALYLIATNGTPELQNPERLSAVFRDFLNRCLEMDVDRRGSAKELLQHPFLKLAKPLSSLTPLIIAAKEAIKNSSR

[20] = molecular target: Serine/threonine-protein kinase TNNI3K (Homo sapiens) (UniProt Q59H18); settings: Compound concentration 1000.0 nM
[21] = molecular target: Serine/threonine-protein kinase SIK3 (Homo sapiens) (UniProt Q9Y2K2); settings: Compound concentration 1000.0 nM
[22] = molecular target: Ribosomal protein S6 kinase alpha-4 (Homo sapiens) (UniProt O75676); settings: Compound concentration 1000.0 nM
[23] = molecular target: Muscarinic acetylcholine receptor M1 (Homo sapiens) (UniProt P11229); settings: Compound concentration 10.0 uM
[24] = test system: Phosphatidylinositol 4,5-bisphosphate 3-kinase catalytic subunit alpha isoform (Homo sapiens), P42336 [C420R]; settings: Compound concentration 1000.0 nM
[25] = molecular target: Epidermal growth factor receptor (Homo sapiens) (UniProt P00533); settings: Compound concentration 1000.0 nM
[26] = molecular target: MAP kinase-interacting serine/threonine-protein kinase 2 (Homo sapiens) (UniProt Q9HBH9); settings: Compound concentration 1000.0 nM
[27] = molecular target: Ephrin type-A receptor 6 (Homo sapiens) (UniProt Q9UF33); settings: Compound concentration 1000.0 nM
[28] = molecular target: Mitogen-activated protein kinase kinase kinase 2 (Homo sapiens) (UniProt Q9Y2U5); settings: Compound concentration 1000.0 nM
[29] = molecular target: Dual specificity protein kinase CLK2 (Homo sapiens) (UniProt P49760); settings: Compound concentration 1000.0 nM
[30] = molecular target: Ephrin type-A receptor 4 (Homo sapiens) (UniProt P54764); settings: Compound concentration 1000.0 nM
[31] = molecular target: Calcium/calmodulin-dependent protein kinase type II subunit gamma (Homo sapiens) (UniProt Q13555); settings: Compound concentration 1000.0 nM
[32] = molecular target: cAMP-dependent protein kinase catalytic subunit beta (Homo sapiens) (UniProt P22694); settings: Compound concentration 1000.0 nM
[33] = molecular target: Cyclin-dependent kinase-like 5 (Homo sapiens) (UniProt O76039); settings: Compound concentration 1000.0 nM
Cyclin-dependent kinase-like 5 (Homo sapiens), sequence (O76039 whole entry): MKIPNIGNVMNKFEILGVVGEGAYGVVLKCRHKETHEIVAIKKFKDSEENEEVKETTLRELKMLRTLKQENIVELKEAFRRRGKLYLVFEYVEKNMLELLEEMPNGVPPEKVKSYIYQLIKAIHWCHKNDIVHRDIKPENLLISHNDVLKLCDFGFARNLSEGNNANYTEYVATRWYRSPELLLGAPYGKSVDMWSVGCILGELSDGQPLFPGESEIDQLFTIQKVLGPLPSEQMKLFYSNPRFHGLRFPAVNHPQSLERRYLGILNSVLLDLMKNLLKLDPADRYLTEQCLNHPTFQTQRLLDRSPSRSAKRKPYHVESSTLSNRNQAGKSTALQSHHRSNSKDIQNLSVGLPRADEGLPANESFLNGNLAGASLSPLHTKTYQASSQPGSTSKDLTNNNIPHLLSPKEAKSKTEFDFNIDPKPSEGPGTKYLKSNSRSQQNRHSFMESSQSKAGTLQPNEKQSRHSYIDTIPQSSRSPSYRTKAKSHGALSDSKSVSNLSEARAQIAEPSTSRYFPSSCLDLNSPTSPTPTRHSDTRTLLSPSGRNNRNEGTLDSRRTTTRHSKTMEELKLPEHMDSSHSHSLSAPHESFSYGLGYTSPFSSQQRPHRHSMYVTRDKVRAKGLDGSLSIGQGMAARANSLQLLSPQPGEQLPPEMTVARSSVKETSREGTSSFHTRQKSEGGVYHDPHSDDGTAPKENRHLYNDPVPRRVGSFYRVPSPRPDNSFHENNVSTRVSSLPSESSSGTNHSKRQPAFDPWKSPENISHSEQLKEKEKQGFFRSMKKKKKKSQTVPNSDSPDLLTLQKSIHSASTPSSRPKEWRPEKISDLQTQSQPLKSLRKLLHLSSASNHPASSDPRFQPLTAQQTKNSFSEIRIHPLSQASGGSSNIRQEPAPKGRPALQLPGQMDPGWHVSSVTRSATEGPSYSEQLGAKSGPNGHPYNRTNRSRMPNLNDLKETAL

[34] = molecular target: TGF-beta receptor type-1 (Homo sapiens) (UniProt P36897); settings: Compound concentration 1000.0 nM
TGF-beta receptor type-1 (Homo sapiens), sequence (P36897 whole entry): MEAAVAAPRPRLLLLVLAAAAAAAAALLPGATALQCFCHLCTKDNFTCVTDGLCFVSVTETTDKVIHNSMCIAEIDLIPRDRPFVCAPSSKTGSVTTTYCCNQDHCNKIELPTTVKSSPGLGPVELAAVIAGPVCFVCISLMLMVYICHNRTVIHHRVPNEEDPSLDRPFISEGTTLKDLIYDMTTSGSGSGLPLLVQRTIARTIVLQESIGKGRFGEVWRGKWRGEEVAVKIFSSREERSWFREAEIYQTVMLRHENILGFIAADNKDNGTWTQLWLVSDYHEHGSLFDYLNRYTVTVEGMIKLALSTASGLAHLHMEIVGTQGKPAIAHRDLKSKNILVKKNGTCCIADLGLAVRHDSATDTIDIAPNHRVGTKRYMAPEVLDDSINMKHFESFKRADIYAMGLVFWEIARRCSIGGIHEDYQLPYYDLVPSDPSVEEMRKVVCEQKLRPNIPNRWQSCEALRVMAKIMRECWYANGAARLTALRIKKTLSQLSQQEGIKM

[35] = molecular target: Mitogen-activated protein kinase 11 (Homo sapiens) (UniProt Q15759); settings: Compound concentration 1000.0 nM
[36] = molecular target: Serine/threonine-protein kinase OSR1 (Homo sapiens) (UniProt O95747); settings: Compound concentration 1000.0 nM
[37] = molecular target: Cyclin-dependent kinase 8 (Homo sapiens) (UniProt P49336); settings: Compound concentration 1000.0 nM
[38] = molecular target: cGMP-dependent protein kinase 2 (Homo sapiens) (UniProt Q13237); settings: Compound concentration 1000.0 nM
[39] = molecular target: Tyrosine-protein kinase Mer (Homo sapiens) (UniProt Q12866); settings: Compound concentration 1000.0 nM
[40] = molecular target: Mitogen-activated protein kinase 7 (Homo sapiens) (UniProt Q13164); settings: Compound concentration 1000.0 nM
[41] = molecular target: Mitogen-activated protein kinase 9 (Homo sapiens) (UniProt P45984); settings: Compound concentration 1000.0 nM
Mitogen-activated protein kinase 9 (Homo sapiens), sequence (P45984 whole entry, looked up): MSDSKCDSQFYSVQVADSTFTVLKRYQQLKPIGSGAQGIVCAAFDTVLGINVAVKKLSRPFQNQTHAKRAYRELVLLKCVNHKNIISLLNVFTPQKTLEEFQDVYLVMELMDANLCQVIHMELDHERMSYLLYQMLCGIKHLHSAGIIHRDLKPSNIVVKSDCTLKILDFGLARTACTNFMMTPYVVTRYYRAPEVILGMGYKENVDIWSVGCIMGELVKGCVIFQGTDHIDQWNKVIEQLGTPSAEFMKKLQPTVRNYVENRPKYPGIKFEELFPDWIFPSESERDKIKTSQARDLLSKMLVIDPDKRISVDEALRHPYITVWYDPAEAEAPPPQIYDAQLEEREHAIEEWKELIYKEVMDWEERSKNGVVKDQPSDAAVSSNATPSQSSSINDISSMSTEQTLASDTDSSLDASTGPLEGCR

[42] = molecular target: Receptor-interacting serine/threonine-protein kinase 2 (Homo sapiens) (UniProt O43353); settings: Compound concentration 1000.0 nM
Receptor-interacting serine/threonine-protein kinase 2 (Homo sapiens), sequence (O43353 whole entry): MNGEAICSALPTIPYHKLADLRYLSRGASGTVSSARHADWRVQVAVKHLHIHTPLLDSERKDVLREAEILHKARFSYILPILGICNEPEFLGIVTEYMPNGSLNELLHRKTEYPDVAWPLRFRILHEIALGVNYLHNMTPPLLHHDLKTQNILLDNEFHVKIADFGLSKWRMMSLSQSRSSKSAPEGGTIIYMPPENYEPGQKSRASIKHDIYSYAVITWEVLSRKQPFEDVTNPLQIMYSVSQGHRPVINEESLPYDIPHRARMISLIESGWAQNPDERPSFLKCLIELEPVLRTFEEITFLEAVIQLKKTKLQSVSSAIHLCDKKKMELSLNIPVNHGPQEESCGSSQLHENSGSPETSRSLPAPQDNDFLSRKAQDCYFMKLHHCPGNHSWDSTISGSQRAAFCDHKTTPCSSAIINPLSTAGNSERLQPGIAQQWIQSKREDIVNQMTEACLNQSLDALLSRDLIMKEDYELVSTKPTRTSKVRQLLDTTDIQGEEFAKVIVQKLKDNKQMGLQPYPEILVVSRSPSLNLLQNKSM

[43] = molecular target: Ephrin type-B receptor 4 (Homo sapiens) (UniProt P54760); settings: Compound concentration 1000.0 nM
[44] = molecular target: Protein kinase C delta type (Homo sapiens) (UniProt Q05655); settings: Compound concentration 1000.0 nM
[45] = molecular target: Serine/threonine-protein kinase Sgk1 (Homo sapiens) (UniProt O00141); settings: Compound concentration 1000.0 nM

Cc1nc(N2CC[C@@H](O)C2)ncc1-c1cc(C(F)(F)F)cc2[nH]ncc12 [TP-004]
residual activity [1]: 90%
residual activity [2]: 100%
inhibition [3]: -5.62%
residual activity [4]: 100%
residual activity [5]: 90%
residual activity [6]: 95%
residual activity [7]: 100%
residual activity [8]: 54%
residual activity [9]: 85%
residual activity [10]: 60%
residual activity [11]: 73%
residual activity [12]: 72%
residual activity [13]: 77%
residual activity [14]: 72%
residual activity [15]: 90%
residual activity [16]: 100%
inhibition [17]: 20%
residual activity [18]: 76%
residual activity [19]: 72%
residual activity [20]: 87%
residual activity [21]: 53%
residual activity [22]: 84%
inhibition [23]: 1.12%
residual activity [24]: 82%
residual activity [25]: 71%
residual activity [26]: 76%
residual activity [27]: 100%
residual activity [28]: 60%
residual activity [29]: 100%
residual activity [30]: 100%
residual activity [31]: 100%
residual activity [32]: 79%
residual activity [33]: 77%
residual activity [34]: 100%
residual activity [35]: 100%
residual activity [36]: 67%
residual activity [37]: 88%
residual activity [38]: 100%
residual activity [39]: 100%
residual activity [40]: 83%
residual activity [41]: 61%
residual activity [42]: 95%
residual activity [43]: 100%
residual activity [44]: 94%
residual activity [45]: 49%
